The values that follow come from US20220298138A1, “ENZYME INHIBITORS” (KALVISTA PHARMACEUTICALS LIMITED, priority 2019, published 2022).

One assay addresses T1, Human FXIa (Homo sapiens, UniProt P03951).
T1 construct: Human FXIa (Enzyme Research Laboratories) was incubated; purchased Enzyme Research Laboratories
As to the kind of experiment: FXIa inhibitory activity in vitro (fluorogenic substrate Z-Gly-Pro-Arg-AFC), selectivity. The assay is classed as biochemical. The conditions noted are these: category scale, 25° C. The procedure: Determination of the % Inhibition for FXIa
Human FXIa (Enzyme Research Laboratories) was incubated at 25° C. with the fluorogenic substrate Z-Gly-Pro-Arg-AFC and various concentrations of the test compound. Residual enzyme activity (initial rate of reaction) was determined by measuring the change in fluorescence at 410 nm and the IC50 value for the test compound was determined.

The target in a further assay is T2, Human Factor XIIa (Homo sapiens, UniProt P00748).
T2 construct: purchased Enzyme Research Laboratories
T2 sequence (P00748 373-615 limits assumed): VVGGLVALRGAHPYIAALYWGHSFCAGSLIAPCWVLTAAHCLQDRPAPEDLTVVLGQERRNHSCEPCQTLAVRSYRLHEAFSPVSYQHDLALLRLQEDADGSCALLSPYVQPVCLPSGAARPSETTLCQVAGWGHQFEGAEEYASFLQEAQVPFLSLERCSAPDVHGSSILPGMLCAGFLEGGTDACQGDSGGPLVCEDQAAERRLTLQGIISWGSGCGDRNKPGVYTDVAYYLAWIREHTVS
Nature of the assay: Factor XIIa inhibitory activity in vitro (fluorogenic substrate H-DPro-Phe-Arg-AFC). The assay is classed as biochemical. The note with it: 25° C., class symbols, read-out: Human FXIIa IC50. The method in brief: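 Enzyme incubated at 25° C with fluorogenic substrate H-DPro-Phe-Arg-AFC and a range of compound concentrations. Residual activity taken as initial reaction rate from […], giving IC50.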

One may read the IC50 as the concentration at which inhibition is half-maximal.

T1 sequence (P03951 388-625 limits assumed): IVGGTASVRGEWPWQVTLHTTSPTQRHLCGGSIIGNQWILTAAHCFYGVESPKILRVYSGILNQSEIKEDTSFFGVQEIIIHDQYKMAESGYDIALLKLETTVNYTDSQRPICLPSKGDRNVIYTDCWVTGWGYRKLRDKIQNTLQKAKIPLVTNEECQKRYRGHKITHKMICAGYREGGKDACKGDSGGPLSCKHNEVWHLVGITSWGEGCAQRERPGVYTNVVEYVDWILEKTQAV
T1 sequence (P03951 19-387 partner limits assumed): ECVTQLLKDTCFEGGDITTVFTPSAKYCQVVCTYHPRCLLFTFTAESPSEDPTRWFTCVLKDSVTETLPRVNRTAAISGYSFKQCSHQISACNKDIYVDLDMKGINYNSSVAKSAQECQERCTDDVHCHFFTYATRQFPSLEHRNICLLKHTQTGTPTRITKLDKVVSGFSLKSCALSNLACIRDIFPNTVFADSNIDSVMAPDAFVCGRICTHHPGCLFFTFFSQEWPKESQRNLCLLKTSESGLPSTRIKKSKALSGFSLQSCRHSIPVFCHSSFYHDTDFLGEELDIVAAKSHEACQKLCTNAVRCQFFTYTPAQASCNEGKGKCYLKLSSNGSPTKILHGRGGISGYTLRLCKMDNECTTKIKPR

With `C[C@H](NC(=O)[C@H](N)COCc1ccccc1)C(=O)NCc1ccc2c(N)nccc2c1` [Example 6.16], the IC50 against Human FXIa and at Human Factor XIIa was 10 to 40 µM each time.
Turning to `CC(C)N[C@H](CCc1ccccc1)C(=O)N(C)[C@@H](C)C(=O)NCc1ccc2c(N)nccc2c1` [Example 65.01], the results for the half-inhibitory concentration (IC50) at Human FXIa and on Human Factor XIIa were 3 to 10 µM and 0.28 to 1 µM, respectively.
In the case of `COc1ccc(-n2ccc(C(F)(F)F)n2)c(CNC(=O)[C@H](C)NC(=O)[C@@H](N)CCc2ccccc2)c1F` [Example 9.05], the IC50 was in the range of 1 to 3 µM on Human FXIa and 10 to 40 µM on Human Factor XIIa.
The like results for `C[C@H](NC(=O)[C@@H]1C=C(c2ccccc2)CN1)C(=O)NCc1ccc2c(N)nccc2c1` [Example 45.02] were, in that order, 3 to 10 µM and 3 to 10 µM.
The like results for `C[C@H](NC(=O)[C@@H](CCc1ccccc1)NS(C)(=O)=O)C(=O)NCc1ccc2c(N)nccc2c1` [Example 6.20] were, in that order, 0.3 to 1 µM and 0.28 to 1 µM.
`C[C@H](NC(=O)[C@H]1C[C@H](c2ccccc2)CN1)C(=O)NCc1ccc2c(N)nccc2c1` [Example 45.03]: the 50% inhibitory concentration (IC50) fell in the range of 3 to 10 µM on Human FXIa and 1 to 3 µM on Human Factor XIIa.
As for `Nc1nccc2cc(CNC(=O)[C@@H]3C[C@@H](c4ccccc4)CN3C(=O)[C@@H]3CCCN3)ccc12` [Example 43.06], the IC50 against Human FXIa lay within 10 to 40 µM; on Human Factor XIIa, 1 to 3 µM.
As to `CC(C)N[C@H](CCCCN1CCCCC1)C(=O)N1CC[C@H]1C(=O)NCc1ccc2c(N)nccc2c1` [Example 17.10], the IC50 is greater than 40 µM against Human FXIa and 0.28 to 1 µM on Human Factor XIIa.
The like results for `Nc1nccc2cc(CNC(=O)C3(NC(=O)[C@H](N)CCc4ccccc4)CCC3)ccc12` [Example 54.02] were, in that order, 10 to 40 µM and 1 to 3 µM.
The like results for `CC(C)N[C@H](CCc1ccccc1)C(=O)N1CC[C@H]1C(=O)NCc1cnc2[nH]cc(Cl)c2c1` [Example 27.08] were, in that order, greater than 40 µM and 0.28 to 1 µM.
Consider `COc1cc2c(N)nccc2cc1CNC(=O)[C@H](C)NC(=O)[C@H](N)CCc1ccccc1` [Example 6.22], for which the IC50 was 3 to 10 µM against Human FXIa and 10 to 40 µM at Human Factor XIIa.
The like results for `Nc1nccc2cc(CNC(=O)CNC(=O)c3ccc(N4CCOCC4)cc3)ccc12` [Example 18.106] were, in that order, greater than 40 µM and 10 to 40 µM.
As to `C[C@@H]1CCC[C@H](C)N1CC(=O)N1C[C@H](c2ccccc2)C[C@H]1C(=O)NCc1ccc2c(N)nccc2c1` [Example 43.02], the concentration for half-maximal inhibition (IC50) on Human FXIa fell in the range of 10 to 40 µM; on Human Factor XIIa it was 0.28 to 1 µM.
The like results for `N[C@H](CCCCN1CCCCC1)C(=O)N[C@@H](Cc1ccc(F)c(F)c1)C(=O)NCc1cnc2[nH]cc(Cl)c2c1` [Example 27.06] were, in that order, greater than 40 µM and 0.03 to 0.1 µM.
The like results for `CC(C)Oc1cc(C(=O)N[C@@H](Cc2ccc(F)c(F)c2)C(=O)NCc2ccc3c(N)nccc3c2)ccn1` [Example 0.95] were, in that order, greater than 40 µM and 10 to 40 µM.
The like results for `CC(C)c1ccnc(C(=O)N[C@@H](Cc2ccc(F)c(F)c2)C(=O)NCc2ccc3c(N)nccc3c2)n1` [Example 0.99] were, in that order, greater than 40 µM and 10 to 40 µM.
`C[C@@H]1CCC[C@H](C)N1CC(=O)N[C@@H](Cc1ccc(F)c(F)c1)C(=O)NCc1ccc2c(N)nccc2c1` [Example 3.42, (2S)—N-[(1-aminoisoquinolin-6-yl)methyl]-3-(3,4-difluorophenyl)-2-{2-[(2R,6S)-2,6-dimethylpiperidin-1-yl]acetamido}propanamide]: the IC50 on Human FXIa is greater than 40 µM; on Human Factor XIIa, 0.03 to 0.1 µM.
Regarding `Nc1nccc2cc(CNC(=O)[C@H](Cc3ccc(F)c(F)c3)NC(=O)[C@H](N)CCCCN3CCCCC3)ccc12` [Example 12.01], the IC50 at Human FXIa is greater than 40 µM; at Human Factor XIIa, 0.03 to 0.1 µM.
Regarding `N=C(N)c1ccc(CNC(=O)[C@H](Cc2ccccc2)NC(=O)[C@@H](CC2CCCCC2)NCC(=O)O)cc1` [Example 71.05], the concentration for half-maximal inhibition (IC50) fell in the range of 0.3 to 1 µM on Human FXIa and 3 to 10 µM on Human Factor XIIa.
With `CC(C)N[C@H](CCCCN1CCCCC1)C(=O)N[C@@H](Cc1c[nH]c2ccccc12)C(=O)NCc1ccc2c(N)nccc2c1` [Example 12.05], the IC50 against Human FXIa lay within 3 to 10 µM; on Human Factor XIIa, 0.03 to 0.1 µM.
The like results for `CC(C)[C@H](N)C(=O)N[C@H](CC1CCCC2CCCCC21)C(=O)NCc1ccc(C(=N)N)s1` (some centres unmarked) [Example 71.04] were, in that order, 3 to 10 µM and 1 to 3 µM.
The like results for `C[C@@H]1CCC[C@H](C)N1CC(=O)NC1(C(=O)NCc2ccc3c(N)nccc3c2)CC1` [Example 39.09] were, in that order, greater than 40 µM and 3 to 10 µM.
In the case of `Nc1nccc2cc(CNC(=O)[C@@H]3C[C@@H](c4ccccc4)CN3C(=O)[C@H](N)CCc3ccccc3)ccc12` [Example 43.03], the concentration for half-maximal inhibition (IC50) at Human FXIa lay in the range of 10 to 40 µM; at Human Factor XIIa, 0.28 to 1 µM.
The like results for `CC(C)N[C@H](CCCCN1CCOCC1)C(=O)N1CC[C@H]1C(=O)NCc1cnc2[nH]cc(Cl)c2c1` [Example 10.05] were, in that order, greater than 40 µM and 0.28 to 1 µM.
The like results for `CC(C)N[C@H](COc1ccccc1)C(=O)N1CCC1C(=O)NCc1ccc2[nH]cc(Cl)c2c1` (some centres unmarked) [Example 10.17] were, in that order, 10 to 40 µM and 10 to 40 µM.
The like results for `O=C(NCc1ccc2[nH]cc(Cl)c2c1)[C@@H]1CCN1C(=O)CCCCCN1CCCCC1` [Example 10.16] were, in that order, greater than 40 µM and 10 to 40 µM.
As for `CC(C)N[C@H](CCCCN1CCCCC1)C(=O)N[C@@H](Cc1ccc(F)c(F)c1)C(=O)NCc1ccc2c(N)nccc2c1` [Example 12.03], the IC50 on Human FXIa was greater than 40 µM; on Human Factor XIIa, less than 0.03 µM.
The like results for `C[C@H](NC(=O)[C@H]1C[C@@H](c2ccccc2)CN1)C(=O)NCc1ccc2c(N)nccc2c1` [Example 45.01] were, in that order, 3 to 10 µM and 0.28 to 1 µM.
